Results as given in patent publication US9428504B2, “7-hydroxy-spiropipiperidine indolinyl antagonists of P2Y1 receptor” (BRISTOL-MYERS SQUIBB COMPANY, priority 2012, dated 2016).

Legend:
[1] = molecular target: cloned human P2Y1 receptors (Homo sapiens (Human), UniProt P47900); assay: Binding Assay B: Scintillation Proximity Assay (SPA) for P2Y1 binding; conditions: SPA, [33P] 2MeS-ADP displacement; read-out: P2Y1 Ki (nM) using binding assay B
How it was run: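 Scintillation proximity readout of 0.3 nM [^33P] tracer displacement from receptor membranes (~15 fmol receptor, 1.7 μg protein). Binding ran 1 h at room temperature to completion; plates were then centrifuged and aqueous phase aspirated before counting.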

[2] = tested on: human platelet rich plasma (PRP); assay: ADP induced platelet aggregation assay; conditions: Homo sapiens, Platelet, read-out: PA IC50 (μM) @ 10 μM ADP, platelet aggregation induced by 10 μM ADP, human PRP

Chain of cloned human P2Y1 receptors (P47900 whole entry): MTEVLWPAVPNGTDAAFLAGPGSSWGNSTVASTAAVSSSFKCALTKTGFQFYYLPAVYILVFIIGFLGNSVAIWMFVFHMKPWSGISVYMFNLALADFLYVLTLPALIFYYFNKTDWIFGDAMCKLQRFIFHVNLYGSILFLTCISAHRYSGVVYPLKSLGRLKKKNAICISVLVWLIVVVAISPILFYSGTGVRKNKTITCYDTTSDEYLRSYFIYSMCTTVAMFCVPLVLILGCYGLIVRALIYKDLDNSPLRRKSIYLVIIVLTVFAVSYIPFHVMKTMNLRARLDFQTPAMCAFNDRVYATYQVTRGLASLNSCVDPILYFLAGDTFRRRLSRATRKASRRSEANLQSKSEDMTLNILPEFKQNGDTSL

| Structure (SMILES) | Ki [1] | IC50 [2] |
| --- | --- | --- |
| CC(C)(C)CN1CCC2(CC1)CN(c1ccccc1NC(=O)Nc1ccc(OC(F)(F)F)cc1)c1c(O)c(F)cc(-c3ccc(Cl)cc3)c12 [Example 156, 1-(2-(4-(4-Chlorophenyl)-6-fluoro-7-hydroxy-1′-neopentylspiro[indoline-3,4′-piperidin]-1-yl)phenyl)-3-(4-(trifluoromethoxy)phenyl)urea] | 20.2 nM | 0.2 µM |
| CC(C)(C)CN1CCC2(CC1)CN(c1ccccc1NC(=O)Nc1ccc(OC(F)(F)F)cc1)c1c(O)cc(F)c(-c3ccc(Cl)cc3)c12 [Example 157, 1-(2-(4-(4-Chlorophenyl)-5-fluoro-7-hydroxy-1′-neopentylspiro[indoline-3,4′-piperidin]-1-yl)phenyl)-3-(4-(trifluoromethoxy)phenyl)urea] | 12.3 nM | 0.2 µM |
| CC(C)(C)CN1CCC2(CC1)CN(c1ccccc1NC(=O)Nc1csc(C(F)(F)F)n1)c1c(O)cc(F)c(-c3ccc(Cl)cc3)c12 [Example 158, 1-(2-(4-(4-Chlorophenyl)-5-fluoro-7-hydroxy-1′-neopentylspiro[indoline-3,4′-piperidin]-1-yl)phenyl)-3-(2-(trifluoromethyl)thiazol-4-yl)urea] | 15.4 nM | 0.3 µM |
| CC(C)(C)CN1CCC2(CC1)CN(c1ccccc1NC(=O)Nc1csc(C(F)(F)F)n1)c1c(O)cc(F)c(-c3ccc(C(F)(F)F)nc3)c12 [Example 159, 1-(2-(5-Fluoro-7-hydroxy-1′-neopentyl-4-(6-(trifluoromethyl)pyridin-3-yl)spiro[indoline-3,4′-piperidin]-1-yl)phenyl)-3-(2-(trifluoromethyl)thiazol-4-yl)urea] | 281 nM | 0.1 µM |
| CC(C)(C)CN1CCC2(CC1)CN(c1ccccc1NC(=O)Nc1ccc(OC(F)(F)F)cc1)c1c(O)cc(F)c(-c3ccc(C(F)(F)F)nc3)c12 [Example 160, 1-(2-(5-Fluoro-7-hydroxy-1′-neopentyl-4-(6-(trifluoromethyl)pyridin-3-yl)spiro[indoline-3,4′-piperidin]-1-yl)phenyl)-3-(4-(trifluoromethoxy)phenyl)urea] | 199 nM | 0.1 µM |
| CC(C)(C)CN1CCC2(CC1)CN(c1ccccc1NC(=O)Nc1nc3ccc(F)cc3s1)c1c(O)cc(F)c(-c3ccc(C(F)(F)F)nc3)c12 [Example 161, 1-(2-(5-Fluoro-7-hydroxy-1′-neopentyl-4-(6-(trifluoromethyl)pyridin-3-yl)spiro[indoline-3,4′-piperidin]-1-yl)phenyl)-3-(6-fluorobenzo[d]thiazol-2-yl)urea] | 41.1 nM | 0.2 µM |
| CC(C)(C)CN1CCC2(CC1)CN(c1ccccc1NC(=O)Nc1nc3ccc(Cl)cc3s1)c1c(O)cc(F)c(-c3ccc(C(F)(F)F)nc3)c12 [Example 162, 1-(6-Chlorobenzo[d]thiazol-2-yl)-3-(2-(5-fluoro-7-hydroxy-1′-neopentyl-4-(6-(trifluoromethyl)pyridin-3-yl)spiro[indoline-3,4′-piperidin]-1-yl)phenyl)urea] | 65.5 nM | 0.5 µM |
| CC(C)(C)CN1CCC2(CC1)CN(c1ccccc1NC(=O)Nc1nc3ccc(Cl)nc3s1)c1c(O)cc(F)c(-c3ccc(Cl)cc3)c12 [Example 164, 1-(2-(4-(4-Chlorophenyl)-5-fluoro-7-hydroxy-1′-neopentylspiro[indoline-3,4′-piperidin]-1-yl)phenyl)-3-(5-chlorothiazolo[5,4-b]pyridin-2-yl)urea] | 24.9 nM | 0.6 µM |
| CC(C)(C)CN1CCC2(CC1)CN(c1ccccc1NC(=O)Nc1nc3ccc(F)cc3s1)c1c(O)cc(F)c(-c3ccc(Cl)cc3)c12 [Example 165, 1-(2-(4-(4-Chlorophenyl)-5-fluoro-7-hydroxy-1′-neopentylspiro[indoline-3,4′-piperidin]-1-yl)phenyl)-3-(6-fluorobenzo[d]thiazol-2-yl)urea] | 56.2 nM | 0.3 µM |
